Measurements as given in US8518412B2, “Partial peptide of lacritin” (Senju Pharmaceutical Co, Ltd., priority 2009, dated 2013).
Non-standard residues stand in square brackets, D forms with d. No end group written: not given here. pGlu = O=C1CC[C@@H](C(=O)O)N1

Test system: human corneal epithelial cells (HCE-T)
Test: Adhesion of human corneal epithelial cell to extracellular matrix (collagen type IV coated plate)
Type: cell-based
Details: polypeptide 100 μg/mL, 37° C. 25 min
Method: An extracellular matrix solution (10 μg/mL, collagen type IV: Becton, Dickinson and Company, catalog No. 354245) was added to a 96 well plate (Iwaki Glass Company, Limited, catalog No. 3860-096). The solution was incubated at 37° C. for 1 hr to coat the plate with the extracellular matrix. After the redundant extracellular matrix solution was removed, 0.1% BSA solution (Sigma-Aldrich Co., catalog No. A3803) was added to block the region not coated with the extracellular matrix. Successively, the BSA solution was removed and the plate was washed twice with PBS, and polypeptides 1-4 (concentration 100 μg/mL) synthesized in Example 1 (Pyr Lac50-83) and Comparative Examples 1-3 (Lac50-83, Pyr Lac50-94, Lac50-94), and negative control polypeptide (Lac24-56, Lac50-65) were added by 50 μl, per well. […]
Thereafter, the cells were fixed with 10% neutral buffered formaldehyde liquid (NACALAI TESQUE, INC., catalog No. 37152-51), and stained with 1% crystal violet staining solution (Sigma-Aldrich Co., catalog No. C3886). The image of the stained cells was uploaded using an inverted system microscope (Olympus Corporation, IX71), and the area of the adhered cells was measured using Image-Pro Plus Ver. […]

Row | Substance | cell adhesion promoting effect (cell adhesion rate against that without addition of polypeptide as 100%)
1 | Pyr Gly Thr Ala Lys Val Thr Ser Ser Arg Gln Glu Leu Asn Pro Leu Lys Ser Ile Val Glu Lys Ser Ile Leu Leu Thr Glu Gln Ala Leu Ala Lys Ala ([pGlu]GTAKVTSSRQELNPLKSIVEKSILLTEQALAKA; listed as Homo sapiens) [polypeptide 1, pyro-modified partial peptide of lacritin] | confirmed to have an activity to promote cell adhesion
2 | Pyr Gly Thr Ala Lys Val Thr Ser Ser Arg Gln Glu Leu Asn Pro Leu Lys Ser Ile Val Glu Lys Ser Ile Leu Leu Thr Glu Gln Ala Leu Ala Lys Ala Gly Lys Gly Met His Gly Gly Val Pro Gly Gly ([pGlu]GTAKVTSSRQELNPLKSIVEKSILLTEQALAKAGKGMHGGVPGG; listed as Homo sapiens) [polypeptide 3] | lowered activity as compared to that of polypeptide before pyro-modification
